Assay results taken from US20110172097A1, “Imidazole and Triazole Compounds, Their Use and Agents Containing The Same” (BASF SE, priority 2008, published 2011).

Columns and labels:
Pyricularia oryzae = type: cell-based; details: day 7, 405 nm, active compound-free control = 100%
Phakopsora pachyrhizi = assay: Example G1 - Curative activity against soybean rust caused by Phakopsora pachyrhizi (greenhouse); type: in vivo, Phakopsora pachyrhizi on soybean seedlings; details: 300 ppm, curative spray 24 h after inoculation, assessed after 14 days, untreated plants 90% infected
Septoria tritici = assay: CG1 - Protective activity against Septoria leaf spot of wheat caused by Septoria tritici (greenhouse); type: in vivo, Septoria tritici on wheat seedlings; details: protective spray 24 h before inoculation, assessed after 21 days, % infection of total leaf area, untreated control 90
Procedure: Subsequently, it was made up to 100 ml with water. This stock solution was diluted with the described solvent/emulsifier/water mixture to the active compound concentration indicated below. Alternatively, the active compounds were used as a commercially available ready-to-use solution and diluted with water to the active compound concentration indicated. CG1 Protective Activity Against Septoria Leaf Spot of Wheat Caused by Septoria tritici Leaves of potted wheat seedlings were sprayed to run off point with an aqueous suspension having the active compound concentration stated below. 24 hours after the spray coating had dried on, they were inoculated with an aqueous spore suspension of Septoria tritici. The test plants were then placed in a greenhouse at temperatures between 18 and 22° C. and a relative atmospheric humidity close to 100% for 4 days and then at temperatures between 18 and 22° C. and an atmospheric humidity of about 70%. After 21 days, the extent of the development of the disease was determined visually in % infection of the total leaf area.

Structure (SMILES) | Growth (%) at 31 ppm CM1 (Pyricularia oryzae) | Infection (%) at 600 ppm CG1 (Septoria tritici) | also measured
CC(C)(CCCC(C(O)C(C)(C)C)n1cncn1)c1ccccc1 (centres unmarked) [I.A1a, 2,2,8-trimethyl-8-phenyl-4-[1,2,4]triazol-1-ylnonan-3-ol] | 26% | – | –
CC(C)(CCCC(C(O)C(C)(C)C)n1cncn1)c1ccccc1 (centres unmarked) [I.A1b, 2,2,8-trimethyl-8-phenyl-4-[1,2,4]triazol-1-ylnonan-3-ol] | – | – | extent of the rust fungus development on the leaves in % infection (Phakopsora pachyrhizi): 0%
CC(C)(C)C(O)C(CCCCc1ccc(F)cc1)n1cncn1 (centres unmarked) [I.A5a, 8-(4-fluorophenyl)-2,2-dimethyl-4-[1,2,4]triazol-1-yloctan-3-ol] | – | 10% | –
CC(C)(C)C(O)C(CCCCc1ccc(Cl)cc1)n1cncn1 (centres unmarked) [reference compound] | – | 40% | –
CC(C)(C)C(O)C(CCCCc1ccccc1)n1cncn1 (centres unmarked) [reference compound] | 61% | – | –
